# Earlier results, collected in paper PMC4257705 (Organic letters, 2009).
# pKd: −log10 of the molar value.
# Biological target: αVβ3
# Settings: tripeptide sequence Arg-Gly-Asp (RGD)
substance,measurement,value
Arg-Gly-Asp [RGD],pKd,~9.00
